In patent US10633397B2, “Substituted polycyclic pyridone derivatives and prodrugs thereof” (priority 2015, dated 2020):
In brackets after ≈: the same amount, converted by molar mass. Like-named read-outs stand apart in the source and are kept apart here.

What was measured:
[1] = target: T1, CYP1A2 (Homo sapiens, UniProt P05177); experiment: biochemical; type: in vitro ADME
T1 construct: Using commercially available pooled human hepatic microsome; from tissue
T1 sequence (P05177 1-516): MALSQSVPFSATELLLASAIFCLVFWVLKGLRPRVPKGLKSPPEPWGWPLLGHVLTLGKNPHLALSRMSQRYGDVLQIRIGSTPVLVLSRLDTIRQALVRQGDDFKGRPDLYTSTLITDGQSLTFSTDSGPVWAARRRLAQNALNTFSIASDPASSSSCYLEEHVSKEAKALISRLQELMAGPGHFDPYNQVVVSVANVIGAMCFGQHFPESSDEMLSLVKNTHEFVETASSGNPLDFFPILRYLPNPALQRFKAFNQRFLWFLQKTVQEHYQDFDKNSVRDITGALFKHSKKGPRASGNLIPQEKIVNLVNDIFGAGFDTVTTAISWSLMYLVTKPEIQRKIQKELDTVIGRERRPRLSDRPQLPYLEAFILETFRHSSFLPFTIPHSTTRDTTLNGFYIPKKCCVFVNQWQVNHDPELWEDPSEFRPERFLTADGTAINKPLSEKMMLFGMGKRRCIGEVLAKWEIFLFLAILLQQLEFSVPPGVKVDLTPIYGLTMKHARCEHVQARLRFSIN
Source text: (§1) Test Example 3: CYP Inhibition Test
(§2) Using commercially available pooled human hepatic microsome, and employing, as markers, 7-ethoxyresorufin O-deethylation (CYP1A2), tolbutamide methyl-hydroxylation (CYP2C9), mephenytoin 4′-hydroxylation (CYP2C19), dextromethorphan O-demethylation (CYP2D6), and terfenedine hydroxylation (CYP3A4) as typical substrate metabolism reactions of human main five CYP enzyme forms (CYP1A2, 2C9, 2C19, 2D6, 3A4), an inhibitory degree of each metabolite production amount by a compound of the present invention was assessed.
(§3) The reaction conditions were as follows: substrate, 0.5 μmol/L ethoxyresorufin (CYP1A2), 100 μmol/L tolbutamide (CYP2C9), 50 μmol/L S-mephenytoinmephenitoin (CYP2C19), 5 μmol/L dextromethorphan (CYP2D6), 1 μmol/L terfenedine (CYP3A4); reaction time, 15 minutes; reaction temperature, 37° C.; enzyme, pooled human hepatic microsome 0.2 mg protein/mL; concentration of a compound of the present invention, 1, 5, 10, 20 μmol/L (four points).
(§4) Each five kinds of substrates, human hepatic microsome, or a compound of the present invention in 50 mmol/L Hepes buffer as a reaction solution was added to a 96-well plate at the composition as described above, NADPH, as a cofactor was added to initiate metabolism reactions as markers and, after the incubation at 37° C. for 15 minutes, a methanol/acetonitrile=1/1 (v/v) solution was added to stop the reaction. After the centrifugation at 3000 rpm for 15 minutes, resorufin (CYP1A2 metabolite) in the supernatant was quantified by a fluorescent multilabel counter and toltributamide hydroxide (CYP2C9P metabolite), mephenytoin 4′ hydroxide (CYP2C19 metabolite), […] (CYP2D6 metabolite), and terfenadine alcohol (CYP3A4 metabolite) were quantified by LC/MS/MS.

[2] = target: T2, CYP2D6 (Homo sapiens, UniProt P10635); experiment: biochemical; type: in vitro ADME
T2 construct: Using commercially available pooled human hepatic microsome; from tissue
Source text: as §1, §2, §3, §4

[3] = target: T3, CYP2C9 (Homo sapiens, UniProt P11712); experiment: biochemical; type: in vitro ADME
T3 construct: Using commercially available pooled human hepatic microsome; from tissue
Source text: as §1, §2, §3, §4

[4] = target: T4, CYP3A4 (Homo sapiens, UniProt P08684); experiment: biochemical; type: in vitro ADME
T4 construct: Using commercially available pooled human hepatic microsome; from tissue
Source text: as §1, §2, §3, §4

[5] = tested on: red blood cells prepared from a defibrinated blood of sheep; experiment: Light hemolysis test; type: cell-based; settings: 10 J/cm^2 UV-irradiation, 0.0008 to 0.1 w/v %
Procedure: Test Example 12: Light Hemolysis Test
The compound of the present invention was dissolved at target concentrations and was mixed with a 2.5 v/v % suspension of red blood cells prepared from a defibrinated blood of sheep on a microplate at concentrations of 0.0008 to 0.1 w/v %. The mixtures were exposed to 10 J/cm^2 of UV-irradiation within a range of wavelength 290 to 400 nm, UVA and UVB using ultra violet fluorescent lamps, GL20SE and FL20S-BLB lamps manufactured by Sankyo Denki Co., Ltd. and Panasonic Corporation, respectively. After the completion of the irradiation, the mixtures were centrifuged, and a supernatant of the mixture was collected and was located on a microplate. The phototoxicity was assessed by measuring an absorbance at wavelength of 540 nm and 630 nm in the supernatant. The absorbance data at wavelength of 540 nm and 630 nm were used as indicators of biomembrane damage (photohemolysis %) and hyperoxidation of lipid membrane (methemoglobin formation), respectively. The criteria of phototoxicity was as follows; It was judged to be non-phototoxic (−) when the photohemolysis %<10 and the maximal change in the absorbance at 630 nm (ΔOD)<0.05 were observed. It was judged to be […] when the photohemolysis was more than 10% and the maximal change in the absorbance at 630 nm (ΔOD) was more than 0.05.

[6] = physchem; type: physicochemical; settings: thermodynamic from solid, 1 hour at 37° C.
Procedure: Test Example 10: Powder Solubility Test
Appropriate amounts of the compound of the present invention was put into vials and 200 μL of JP-1st Fluid (water was added to 2.0 g of sodium chloride in 7.0 mL of hydrochloride acid to reach 1000 mL), JP-2nd Fluid (water was added to 500 mL of phosphate buffer solution with a pH of 6.8) and 20 mmol/L sodium taurocholate (TCA)/JP-2nd Fluid (JP-2nd Fluid was added to 1.08 g of TCA in JP-2nd Fluid to reach 100 mL) was added to each vial. When the compound was completely dissolved, appropriate amount of compound was added. After shaken for 1 hour at 37° C., the mixture was filtered and 100 μL of methanol was added to 100 μL of each filtrate (double dilution). Dilution magnification was changed if necessary. After it was confirmed whether there were air bubbles and precipitates in the vials, the vials were shaken with tight stopper. The compound concentration was determined with HPLC by the absolute calibration method.

T2 sequence (P10635 whole entry): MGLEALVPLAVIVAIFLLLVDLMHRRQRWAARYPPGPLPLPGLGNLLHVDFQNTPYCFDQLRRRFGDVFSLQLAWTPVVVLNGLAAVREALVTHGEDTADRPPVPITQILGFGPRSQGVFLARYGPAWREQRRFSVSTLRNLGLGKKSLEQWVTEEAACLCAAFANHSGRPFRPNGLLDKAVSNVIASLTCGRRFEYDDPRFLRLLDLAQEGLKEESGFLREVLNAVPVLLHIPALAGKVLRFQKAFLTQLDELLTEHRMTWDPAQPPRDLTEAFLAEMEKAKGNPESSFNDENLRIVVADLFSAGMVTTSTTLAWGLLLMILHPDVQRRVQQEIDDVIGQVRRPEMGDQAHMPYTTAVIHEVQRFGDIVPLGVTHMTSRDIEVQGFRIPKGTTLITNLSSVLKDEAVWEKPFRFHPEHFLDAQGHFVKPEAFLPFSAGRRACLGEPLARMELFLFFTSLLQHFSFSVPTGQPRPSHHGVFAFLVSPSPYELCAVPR
T4 sequence (P08684 whole entry): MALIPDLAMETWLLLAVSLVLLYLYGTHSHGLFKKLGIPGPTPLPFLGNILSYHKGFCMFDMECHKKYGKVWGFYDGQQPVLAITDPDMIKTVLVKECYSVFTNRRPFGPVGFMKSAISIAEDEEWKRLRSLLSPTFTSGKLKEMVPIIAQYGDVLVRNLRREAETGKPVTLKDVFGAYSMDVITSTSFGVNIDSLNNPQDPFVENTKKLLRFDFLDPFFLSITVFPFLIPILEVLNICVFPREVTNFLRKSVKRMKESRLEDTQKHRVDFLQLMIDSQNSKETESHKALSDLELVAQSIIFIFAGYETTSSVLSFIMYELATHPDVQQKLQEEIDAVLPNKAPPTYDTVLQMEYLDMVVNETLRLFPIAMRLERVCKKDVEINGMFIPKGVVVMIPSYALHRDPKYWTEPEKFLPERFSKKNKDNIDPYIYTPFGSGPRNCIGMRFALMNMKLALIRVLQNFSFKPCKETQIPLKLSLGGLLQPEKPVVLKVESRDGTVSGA
T3 sequence (P11712 whole entry): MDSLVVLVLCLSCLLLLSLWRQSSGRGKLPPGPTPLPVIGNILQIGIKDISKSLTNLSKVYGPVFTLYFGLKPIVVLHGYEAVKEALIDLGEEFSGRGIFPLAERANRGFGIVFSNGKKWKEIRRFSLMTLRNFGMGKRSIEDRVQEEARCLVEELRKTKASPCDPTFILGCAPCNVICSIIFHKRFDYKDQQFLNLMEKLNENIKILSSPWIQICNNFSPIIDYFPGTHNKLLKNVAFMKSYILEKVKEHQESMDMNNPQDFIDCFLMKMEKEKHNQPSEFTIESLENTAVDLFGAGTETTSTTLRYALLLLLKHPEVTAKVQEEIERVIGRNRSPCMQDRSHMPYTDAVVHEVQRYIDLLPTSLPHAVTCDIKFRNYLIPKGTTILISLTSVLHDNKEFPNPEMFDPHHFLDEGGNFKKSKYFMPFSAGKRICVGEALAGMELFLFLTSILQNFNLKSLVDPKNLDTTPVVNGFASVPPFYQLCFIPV

O=C1c2c(O)c(=O)ccn2N([C@@H]2c3ccccc3SCc3c2ccc(F)c3F)[C@@H]2COCCN12 [III-2] showed an IC50 [1] greater than 20 µM, an IC50 [2] greater than 20 µM and an IC50 [3] greater than 20 µM. The IC50 [4] was greater than 20 µM, the phototoxicity [5] was “(−) (It was judged to be non-phototoxic (−) when the photohemolysis %<10 and the maximal change in the absorbance at 630 nm (ΔOD)<0.05 were observed)” and the solubility ([6]; pH 1.2, simulated gastric fluid, JP-1 solution, read-out: powder solubility, JP-1 solution) was 7.1 µg/mL (≈ 14.7 µM). It also gave a solubility ([6]; pH 6.8, aqueous buffer, JP-2 solution, read-out: powder solubility, JP-2 solution) of 4.4 µg/mL (≈ 9.1 µM) and a solubility ([6]; pH 6.8, fassgf or other biorelevant, 20 mmol/L TCA/JP-2 solution) of 16.1 µg/mL (≈ 33.3 µM).
